{
  "source": "patent US20240197766A1",
  "about": "“TREATMENT OF RNA VIRUS INFECTION WITH A CYTIDINE” (The Cleveland Clinic Foundation, priority 2021, published 2024)",
  "key": {"CMV": {"system": "CMV", "details": "case series of renal transplantation patients; cited from earlier work"}, "coronavirus": {"system": "coronavirus", "format": "cell-based", "details": "THU 24 hours at clinically relevant concentrations, human lung epithelial cells, plaque assay and QRT-PCR"}, "[1]": {"assay": "THU clinical pharmacokinetics, oral 750 mg in healthy volunteers", "details": "male, human, in vivo"}, "[2]": {"system": "cytidine analog deamination", "assay": "THU clinical pharmacodynamics: deamination of co-administered cytidine analogs"}, "[3]": {"details": "cited from earlier work"}, "serum uridine levels": {"system": "serum uridine levels", "assay": "THU clinical pharmacodynamics: serum uridine and cytidine levels", "description": "Volunteers (3 males; 3 females) received a single THU dose of 750 mg 7 days apart, the 1st dose in a fasted state and the 2nd after a standard FDA meal."}, "[4]": {"details": "read-out: routine Cmax; clinical; cited from earlier work"}, "host cell": {"system": "host cell", "details": "clinically relevant concentrations, data from Xiong et al.; cited from earlier work"}},
  "note": "Values joined by “and” are separate entries in the source; they are usually repeats but may differ in a detail not shown here. Identical values can stand only once. “Also recorded” adds a separate entry of the source. Like-named read-outs stand apart in the source and are kept apart here.",
  "data": [
    {"compound": "Cc1oncc1C(=O)Nc1ccc(C(F)(F)F)cc1", "note": "[leflunomide]", "values": [
      {"measurement": "clinical outcome of CMV infection", "setting": "CMV", "value": "cleared virus and/or produced clinical improvement"}
    ]},
    {"compound": "O=C1NC(O)CCN1[C@@H]1O[C@H](CO)[C@@H](O)[C@H]1O", "note": "(stereo partly shown) [THU, tetrahydrouridine]", "values": [
      {"measurement": "coronavirus (VSV) replication", "setting": "coronavirus", "value": "inhibited coronavirus replication; also recorded: significantly inhibited"},
      {"measurement": "Cmax", "setting": "[1]", "value": "2 µM to 8 µM and 500 ng/mL to 2000 ng/mL"},
      {"measurement": "Tmax", "setting": "[1]", "value": "~3", "unit": "h"},
      {"measurement": "reduction in cytidine analog deamination", "setting": "[2]", "value": "~90", "unit": "%"},
      {"measurement": "administered drug excreted through the kidneys within 24 h", "setting": "[3]; renal excretion, within 24 h", "value": "approximately 50%"},
      {"measurement": "elimination within 48 hours", "setting": "[3]; within 48 hours", "value": 100, "unit": "%"},
      {"measurement": "decrease of uridine availability to non-dividing cells", "setting": "serum uridine levels; inhibition of 2 CDA-mediated uridine supply routes", "value": "≤ 90", "unit": "%"},
      {"measurement": "serum cytidine levels", "setting": "serum uridine levels; single THU dose of 750 mg", "value": "increasing"},
      {"measurement": "decrease in serum uridine levels", "setting": "serum uridine levels; single THU dose of 750 mg, fasted and fed states, males and females", "value": "50-80% and 50-90%"},
      {"measurement": "reduction of uridine available for systemic salvage", "setting": "serum uridine levels; standard, non-toxic doses", "value": "up to 90%"}
    ]},
    {"compound": "C/C(O)=C(\\C#N)C(=O)Nc1ccc(C(F)(F)F)cc1", "note": "[Teriflunomide, teriflunomide]", "values": [
      {"measurement": "Cmax", "setting": "[4]", "value": "10 to 100", "unit": "µM"},
      {"measurement": "host cell cytotoxicity", "setting": "host cell", "value": "minimal"}
    ]}
  ]
}
